Results reported in patent publication US20070128217A1 (priority 2003, published 2007).

Key:
[1] = system: antibodies in sera from SARS patients (sera 1a, 1b, 2, 6, 37, 62, London, SARS-yellow, SARS-green); assay type: binding, human; design: Binding of serum 6 to linear peptides of protein X1 of SARS-CoV Urbani / Binding of serum 37 to linear peptides of protein X1 of SARS-CoV Urbani / Binding of serum 6 to looped/cyclic peptide (PEPSCAN-ELISA) / Binding of serum 37 to looped/cyclic peptide (PEPSCAN-ELISA) / Binding of serum 37 to looped/cyclic peptides of protein X1 of SARS-CoV Urbani / Binding of serum 6 to linear peptides of protein X2 / Binding of serum 37 to linear peptides of protein X2 / Binding of serum 37 to looped/cyclic peptides of protein X2 of SARS-CoV Urbani / Binding of serum 6 to linear peptides of protein M of SARS-CoV Urbani / Binding of serum 37 to linear peptides of protein M of SARS-CoV Urbani / Binding of serum 6 to looped/cyclic peptides of protein M of SARS-CoV Urbani / Binding of serum 37 to looped/cyclic peptides of protein M of SARS-CoV Urbani / Binding of serum 6 to linear peptides of protein X3 of SARS-CoV Urbani / Binding of serum 37 to linear peptides of protein X3 of SARS-CoV Urbani / Binding of serum 37 to looped/cyclic peptides of protein X3 of SARS-CoV Urbani / Binding of serum 6 to linear peptides of protein X4 of SARS-CoV Urbani / Binding of serum 37 to linear peptides of protein X4 of SARS-CoV Urbani / Binding of serum 37 to looped/cyclic peptides of protein X4 of SARS-CoV Urbani / Binding of serum 6 to linear peptides of protein X5 of SARS-CoV Urbani / Binding of serum 37 to linear peptides of protein X5 of SARS-CoV Urbani / Binding of serum 37 to looped/cyclic peptides of protein X5 of SARS-CoV Urbani / Binding of serum 6 to linear peptides of protein N of SARS-CoV Urbani / Binding of serum 37 to linear peptides of protein N of SARS-CoV Urbani / Binding of serum 6 to linear peptide (PEPSCAN-ELISA) / Binding of serum 1a to looped/cyclic peptides of protein N of SARS-CoV Urbani / Binding of serum 1b to looped/cyclic peptides of protein N of SARS-CoV Urbani / Binding of serum 2 to looped/cyclic peptides of protein N of SARS-CoV Urbani / Binding of serum 6 to looped/cyclic peptides of protein N of SARS-CoV Urbani / Binding of serum 37 to looped/cyclic peptides of protein N of SARS-CoV Urbani / Binding of serum 62 to looped/cyclic peptides of protein N of SARS-CoV Urbani / Binding of serum London to looped/cyclic peptides of protein N of SARS-CoV Urbani / Binding of serum SARS-green to looped/cyclic peptides of protein N of SARS-CoV Urbani: unit not given here
[2] = system: control sera (pooled serum of ten healthy LUMC hospital workers; commercial negative donor pooled serum from the Dutch bloodbank); assay type: binding, human; design: Binding of Control serum LUMC to linear peptides / Binding of Control serum Blood-bank to linear peptides / Binding of Control serum LUMC to looped peptides / Binding of Control Serum Blood-Bank to Looped peptides / Binding of Control serum LUMC to linear peptides of the protein M of SARS-CoV Urbani / Binding of Control serum Blood-bank to linear peptides of the protein M of SARS-CoV Urbani / Binding of Control serum LUMC to looped peptides of the protein M of SARS-CoV Urbani / Binding of Control Serum Blood-Bank to Looped peptides of the protein M of SARS-CoV Urbani: unit not given here
[3] = system: rabbit serum obtained by immunizing a rabbit with the SARS-CoV strain Frankfurt 1; assay type: binding; design: Binding of a rabbit serum to linear peptides / Binding of a rabbit serum to looped peptides / Rabbit serum linear peptides / Rabbit serum looped peptides / Binding of a rabbit serum to linear peptides of protein N of SARS-CoV Urbani (Rabbit serum linear peptides) / Binding of a rabbit serum to looped/cyclic peptides of protein N of SARS-CoV Urbani (Rabbit serum looped peptides): unit not given here

ITVATSRTLSYYKLG
Binding of serum 1a to linear peptides of protein M of SARS-CoV Urbani [1]: 0.6 | Binding of serum 1a to looped/cyclic peptides of protein M of SARS-CoV Urbani [1]: 1.0 | Binding of serum 1b to linear peptides of protein M of SARS-CoV Urbani [1]: 0.4 | Binding of serum 1b to looped/cyclic peptides of protein M of SARS-CoV Urbani [1]: 0.6 | Binding of serum 2 to linear peptides of protein M of SARS-CoV Urbani [1]: 0.5 | Binding of serum 2 to looped/cyclic peptides of protein M of SARS-CoV Urbani [1]: 0.8 | Binding of serum 6 to linear peptides of protein M of SARS-CoV Urbani [1]: 0.5 | Binding of serum 6 to looped/cyclic peptides of protein M of SARS-CoV Urbani [1]: 1.1 | Binding of serum 37 to linear peptides of protein M of SARS-CoV Urbani [1]: 0.4 | Binding of serum 37 to looped/cyclic peptides of protein M of SARS-CoV Urbani [1]: 0.3 | Binding of serum 62 to linear peptides of protein M of SARS-CoV Urbani [1]: 0.4 | Binding of serum 62 to looped/cyclic peptides of protein M of SARS-CoV Urbani [1]: 0.6 | Binding of serum London to linear peptides of protein M of SARS-CoV Urbani [1]: 0.3 | Binding of serum London to looped/cyclic peptides of protein M of SARS-CoV Urbani [1]: 0.4 | Binding of serum SARS-green to linear peptides of protein M of SARS-CoV Urbani [1]: 0.5 | Binding of serum SARS-green to looped/cyclic peptides of protein M of SARS-CoV Urbani [1]: 0.4 | Binding of serum SARS-yellow to linear peptides of protein M of SARS-CoV Urbani [1]: 0.2 | Binding of serum SARS-yellow to looped/cyclic peptides of protein M of SARS-CoV Urbani [1]: 0.4 | Binding of Control Serum Blood-Bank to Looped peptides of the protein M of SARS-CoV Urbani [2]: 0.5 | Binding of Control serum Blood-bank to linear peptides of the protein M of SARS-CoV Urbani [2]: 0.8 | Binding of Control serum LUMC to linear peptides of the protein M of SARS-CoV Urbani [2]: 0.7 | Binding of Control serum LUMC to looped peptides of the protein M of SARS-CoV Urbani [2]: 0.6 | Rabbit serum linear peptides [3]: 0.2 | Rabbit serum looped peptides [3]: 0.4

IVFTSCELYHYQECV
Binding of serum 1a to linear peptides of protein X4 of SARS-CoV Urbani [1]: 0.8 | Binding of serum 1a to looped/cyclic peptides of protein X4 of SARS-CoV Urbani [1]: 0.9 | Binding of serum 1b to linear peptides of protein X4 of SARS-CoV Urbani [1]: 0.9 | Binding of serum 1b to looped/cyclic peptides of protein X4 of SARS-CoV Urbani [1]: 0.8 | Binding of serum 2 to linear peptides of protein X4 of SARS-CoV Urbani [1]: 0.6 | Binding of serum 2 to looped/cyclic peptides of protein X4 of SARS-CoV Urbani [1]: 0.8 | Binding of serum 6 to linear peptides of protein X4 of SARS-CoV Urbani [1]: 0.8 | Binding of serum 6 to looped/cyclic peptides of protein X4 of SARS-CoV Urbani [1]: 0.6 | Binding of serum 37 to linear peptides of protein X4 of SARS-CoV Urbani [1]: 1.0 | Binding of serum 37 to looped/cyclic peptides of protein X4 of SARS-CoV Urbani [1]: 1.0 | Binding of serum 62 to linear peptides of protein X4 of SARS-CoV Urbani [1]: 1.0 | Binding of serum 62 to looped/cyclic peptides of protein X4 of SARS-CoV Urbani [1]: 0.8 | Binding of serum London to linear peptides of protein X4 of SARS-CoV Urbani [1]: 0.8 | Binding of serum London to looped/cyclic peptides of protein X4 of SARS-CoV Urbani [1]: 0.3 | Binding of serum SARS-green to linear peptides of protein X4 of SARS-CoV Urbani [1]: 0.9 | Binding of serum SARS-green to looped/cyclic peptides of protein X4 of SARS-CoV Urbani [1]: 0.8 | Binding of serum SARS-yellow to linear peptides of protein X4 of SARS-CoV Urbani [1]: 0.4 | Binding of serum SARS-yellow to looped/cyclic peptides of protein X4 of SARS-CoV Urbani [1]: 0.6 | Binding of Control Serum Blood-Bank to Looped peptides [2]: 0.8 | Binding of Control serum Blood-bank to linear peptides [2]: 0.8 | Binding of Control serum LUMC to linear peptides [2]: 0.8 | Binding of Control serum LUMC to looped peptides [2]: 0.9 | Rabbit serum linear peptides [3]: 0.4 | Rabbit serum looped peptides [3]: 0.4

IVTRPLMESELVIGA
Binding of serum 1a to linear peptides of protein M of SARS-CoV Urbani [1]: 0.8 | Binding of serum 1b to linear peptides of protein M of SARS-CoV Urbani [1]: 0.7 | Binding of serum 2 to linear peptides of protein M of SARS-CoV Urbani [1]: 0.6 | Binding of serum 6 to linear peptides of protein M of SARS-CoV Urbani [1]: 0.4 | Binding of serum 37 to linear peptides of protein M of SARS-CoV Urbani [1]: 0.6 | Binding of serum 62 to linear peptides of protein M of SARS-CoV Urbani [1]: 0.6 | Binding of serum London to linear peptides of protein M of SARS-CoV Urbani [1]: 0.3 | Binding of serum SARS-green to linear peptides of protein M of SARS-CoV Urbani [1]: 0.6 | Binding of serum SARS-yellow to linear peptides of protein M of SARS-CoV Urbani [1]: 0.5 | Recognition of the peptide by sera of SARS-CoV infected individuals, and form (linear, looped/cyclic) in which it is recognized [1]: recognized in looped/cyclic form | Binding of Control Serum Blood-Bank to Looped peptides of the protein M of SARS-CoV Urbani [2]: 0.9 | Binding of Control serum Blood-bank to linear peptides of the protein M of SARS-CoV Urbani [2]: 0.7 | Binding of Control serum LUMC to linear peptides of the protein M of SARS-CoV Urbani [2]: 0.8 | Binding of Control serum LUMC to looped peptides of the protein M of SARS-CoV Urbani [2]: 1.0 | Rabbit serum linear peptides [3]: 0.1 | Rabbit serum looped peptides [3]: 0.4
